# Data: US20250353873A1, “COMPOUNDS AND METHODS FOR MODULATING APOE EXPRESSION” (Ionis Pharmaceuticals, Inc., priority 2024, published 2025)
# Strand notation (5' to 3'): a small letter for the sugar, then the base; units joined by * are phosphorothioate-linked, units joined directly phosphodiester-linked; [ ] holds rarer units or linkages, { } end groups; capitals alone tell only the bases. [ms] = mesyl phosphoramidate linkage; e = 2'-O-(2-methoxyethyl) (MOE); k = constrained ethyl (cEt); [5mC] = 5-methylcytosine; d = 2'-deoxy (DNA)
# Columns and labels:
# [1] = tested on: human APOE RNA; experiment: Dose-dependent reduction of human APOE RNA in HepG2 cells, electroporation, 20,000 cells per well, average of GAPDH- and PPIA-normalized results (Example 4, Table 12); assay type: cell-based; conditions: HepG2, 20,000 cells per well
# Procedure: HepG2 cells plated at a density of 20,000 cells per well were treated by electroporation with various concentrations of modified oligonucleotide as specified in the tables below. […] APOE RNA levels were measured using the human primer probe set RTS3073 (described herein above). APOE RNA levels were normalized to human GAPDH, and human PPIA. Human GAPDH was amplified using human primer probe set RTS104 (described herein above). Human PPIA was amplified using human primer probe set mk_cycloA_2nd (described herein above) The average of the GAPDH-normalized results and the PPIA-normalized results are presented in the table below as percent APOE RNA, relative to the amount of APOE RNA in untreated control cells (% UTC). The half maximal inhibitory concentration (IC50) of each modified oligonucleotide was calculated in GraphPad Prism 10 (GraphPad Software, San Diego, CA) and is also presented in the table below.
# [2] = tested on: human APOE RNA; experiment: Dose-dependent inhibition of human APOE RNA in differentiated SH-SY5Y cells, free uptake, 5 days (Example 5); assay type: cell-based
# Procedure: Modified oligonucleotides selected from the examples above were tested at various doses in differentiated SH-SY5Y cells. The modified oligonucleotides were tested in a series of experiments that had the same culture conditions.
# Differentiated SH-SY5Y cells plated at a density of 10,000 cells per well were treated by free uptake with various concentrations of modified oligonucleotide as specified in the tables below. […] APOE RNA levels were measured using the human primer probe set RTS3073 (described herein above). APOE RNA levels were normalized to human PPIA. Human PPIA was amplified using human primer probe set mk_cycloA_2nd (described herein above). Results are presented as percent APOE RNA, relative to the amount of APOE RNA in untreated control cells (% UTC). The half maximal inhibitory concentration (IC50) of each modified oligonucleotide was calculated in GraphPad Prism 10 (GraphPad Software, San Diego, CA) and is also presented in the tables below.
# [3] = tested on: human APOE RNA; experiment: Activity in APOE C57BL/6NTac-Apoeem7250 knock-in mice, single ICV bolus, 4 weeks (Example 10); assay type: in vivo; conditions: single ICV bolus 300 μg, 4 weeks post treatment, normalized to mouse Ppia
# In short: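 Knock-in mice (2–4 per group) received one 300 μg ICV bolus of oligonucleotide or PBS. After four weeks, human APOE RNA in cortex and spinal cord measured by RT-qPCR (primer probe set RTS3073), normalized to mouse Ppia, expressed as % of PBS controls.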
# [4] = tested on: human APOE RNA; experiment: Activity in APOE C57BL/6NTac-Apoeem7250 knock-in mice, single ICV bolus, 8 weeks (Example 11); assay type: in vivo; conditions: for APOE RNA (% control) Cortex / APOE RNA (% control) Spinal Cord: single ICV bolus 300 μg, 8 weeks post treatment, normalized to mouse Ppia
# In short: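 Human APOE knock-in C57BL/6NTac mice given one ICV bolus of 300 μg oligonucleotide; PBS-dosed group as control. At 8 weeks, cortex and spinal cord RNA measured by qRT-PCR (human probe RTS3073), normalized to mouse Ppia, expressed as % of PBS control.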
# [5] = tested on: human APOE RNA; experiment: Activity in APOE C57BL/6NTac-Apoeem7250 knock-in mice, single ICV bolus, 20 weeks (Example 13); assay type: in vivo; conditions: single ICV bolus 300 μg, 20 weeks post treatment, normalized to mouse Ppia
# In short: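 Knock-in mice (n=4) given a single ICV bolus of 300 μg oligonucleotide, PBS as control. After 20 weeks, human APOE RNA in cortex and spinal cord measured by RT-qPCR, normalized to mouse Ppia, expressed as % of PBS-treated animals.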
substance,measurement,setting,value
1778111: modified oligonucleotide complementary to human APOE RNA (eA*e[5mC]eTeTeG*kG*dT*dG[ms]dA[ms]dA*dT*d[5mC]*dT*dT*dT*dA[ms]eTeT*eA*eA; antisense) [compound 1778111],APOE RNA (% UTC),[1]; 5 nM,106 % UTC
same,APOE RNA (% UTC),[1]; 13 nM,88 % UTC
same,APOE RNA (% UTC),[1]; 33 nM,91 % UTC
same,APOE RNA (% UTC),[1]; 82 nM,77 % UTC
same,APOE RNA (% UTC),[1]; 205 nM,62 % UTC
same,APOE RNA (% UTC),[1]; 512 nM,43 % UTC
same,APOE RNA (% UTC),"[1]; 1,280 nM",32 % UTC
same,APOE RNA (% UTC),"[1]; 3,200 nM",21 % UTC
same,APOE RNA (% UTC),"[1]; 8,000 nM",14 % UTC
same,APOE RNA (% UTC),"[1]; 20,000 nM",8 % UTC
same,IC50,[1]; approximately 24 hours,440 nM
same,APOE RNA (% UTC),"[2]; 5 nM, 5 days (Table 14)",67 % UTC
same,APOE RNA (% UTC),"[2]; 13 nM, 5 days (Table 14)",68 % UTC
same,APOE RNA (% UTC),"[2]; 33 nM, 5 days (Table 14)",41 % UTC
same,APOE RNA (% UTC),"[2]; 82 nM, 5 days (Table 14)",41 % UTC
same,APOE RNA (% UTC),"[2]; 205 nM, 5 days (Table 14)",32 % UTC
same,APOE RNA (% UTC),"[2]; 512 nM, 5 days (Table 14)",62 % UTC
same,APOE RNA (% UTC),"[2]; 1,280 nM, 5 days (Table 14)",59 % UTC
same,APOE RNA (% UTC),"[2]; 3,200 nM, 5 days (Table 14)",43 % UTC
same,APOE RNA (% UTC),"[2]; 8,000 nM, 5 days (Table 14)",25 % UTC
same,APOE RNA (% UTC),"[2]; 20,000 nM, 5 days (Table 14)",17 % UTC
same,IC50,[2]; 5 days (Table 14),110 nM
same,APOE RNA (% control) Cortex,[3]; cortex,34 % control
same,APOE RNA (% control) Spinal Cord,[3]; spinal cord,53 % control
same,APOE RNA (% control) Cortex,[4],41 % control
same,APOE RNA (% control) Spinal Cord,[4],17 % control
same,APOE RNA (% control) Cortex,[5]; cortex,59 % control
same,APOE RNA (% control) Spinal Cord,[5]; spinal cord,25 % control
TezTeoGeoGksTdsGdzAdzAdzTds^mCdsTdsTdsTdsAdzTksTksAesAesAes^mCe (antisense eT[ms]eTeGkG*dT*dG[ms]dA[ms]dA[ms]dT*d[5mC]*dT*dT*dT*dA[ms]kT*kT*eA*eA*eA*e[5mC]) [Compound No. 1809814],APOE RNA (% UTC),"[2]; 5 nM, 5 days (Table 13)",91 % UTC
same,APOE RNA (% UTC),"[2]; 13 nM, 5 days (Table 13)",66 % UTC
same,APOE RNA (% UTC),"[2]; 33 nM, 5 days (Table 13)",61 % UTC
same,APOE RNA (% UTC),"[2]; 82 nM, 5 days (Table 13)",63 % UTC
same,APOE RNA (% UTC),"[2]; 205 nM, 5 days (Table 13)",47 % UTC
same,APOE RNA (% UTC),"[2]; 512 nM, 5 days (Table 13)",53 % UTC
same,APOE RNA (% UTC),"[2]; 1,280 nM, 5 days (Table 13)",39 % UTC
same,APOE RNA (% UTC),"[2]; 3,200 nM, 5 days (Table 13)",39 % UTC
same,APOE RNA (% UTC),"[2]; 8,000 nM, 5 days (Table 13)",41 % UTC
same,APOE RNA (% UTC),"[2]; 20,000 nM, 5 days (Table 13)",33 % UTC
same,IC50,[2]; 5 days (Table 13),550 nM
same,reduction of human APOE RNA in the cortex,"[4]; APOE knock-in mouse model, 8 weeks post administration, assay of Example 11",64%
same,APOE RNA (% control) Cortex,[4],36 % control
same,APOE RNA (% control) Spinal Cord,[4],33 % control
